Laboratory results reported in the NIST ThermoML archive (doi:10.1021/acs.jced.7b00002).
Numbers after ± are expanded uncertainties.

Assay: xn = mol fraction of the nth substance listed
Conditions: 97.6 kPa, Liquid; for viscosity: Capillary tube (Ostwald / Ubbelohde) method; for mass density: Vibrating tube method

CCCCCCCC[n+]1ccn(C)c1.[Cl-] [1-methyl-3-octylimidazolium chloride] + C[S+](C)[O-]
Conditions	mass density [kg/m3]	viscosity [mPa·s]
303.15 K, x1 = 0.13	1067.88 ± 2.2	6.85
303.15 K, x1 = 0.253	1051.57 ± 2.1	24.14
303.15 K, x1 = 0.338	1042.77 ± 2.1	55.12
303.15 K, x1 = 0.439	1034.29 ± 2.1	143.43
303.15 K, x1 = 0.574	1025.26 ± 2.1	371.36
303.15 K, x1 = 0.75	1015.41 ± 2.1	1084.7
303.15 K, x1 = 0.862	1011.18 ± 2.1	3235.6
303.15 K, x1 = 1	1006.2 ± 2.2	7339.7
308.15 K, x1 = 0.13	1063.71 ± 2.1	6
308.15 K, x1 = 0.253	1047.84 ± 2.1	19.97
308.15 K, x1 = 0.338	1039.2 ± 2.1	43.8
308.15 K, x1 = 0.439	1030.91 ± 2.1	107.7
308.15 K, x1 = 0.574	1022.09 ± 2.1	264.22
308.15 K, x1 = 0.75	1012.38 ± 2.1	742.47
308.15 K, x1 = 0.862	1008.24 ± 2.1	2150.9
308.15 K, x1 = 1	1003.33 ± 2.1	4272.9
313.15 K, x1 = 0.13	1059.55 ± 2.1	5.24
313.15 K, x1 = 0.253	1044.09 ± 2.1	16.54
313.15 K, x1 = 0.338	1035.65 ± 2.1	34.98
313.15 K, x1 = 0.439	1027.54 ± 2.1	82.42
313.15 K, x1 = 0.574	1018.92 ± 2.1	192.92
313.15 K, x1 = 0.75	1009.41 ± 2.1	508.33
313.15 K, x1 = 0.862	1005.31 ± 2.1	1404.4
313.15 K, x1 = 1	1000.48 ± 2.1	2766.9
318.15 K, x1 = 0.13	1055.41 ± 2.1	4.62
318.15 K, x1 = 0.253	1040.39 ± 2.1	13.89
318.15 K, x1 = 0.338	1032.11 ± 2.1	28.15
318.15 K, x1 = 0.439	1024.18 ± 2.1	63.95
318.15 K, x1 = 0.574	1015.75 ± 2.1	143.95
318.15 K, x1 = 0.75	1006.46 ± 2.1	363.38
318.15 K, x1 = 0.862	1002.4 ± 2.1	943.52
318.15 K, x1 = 1	997.64 ± 2.1	1788.6
323.15 K, x1 = 0.13	1051.26 ± 2.1	4.1
323.15 K, x1 = 0.253	1036.65 ± 2.1	11.8
323.15 K, x1 = 0.338	1028.58 ± 2.1	23.25
323.15 K, x1 = 0.439	1020.83 ± 2.1	50.83
323.15 K, x1 = 0.574	1012.58 ± 2.1	109.49
323.15 K, x1 = 0.75	1003.51 ± 2.1	264.93
323.15 K, x1 = 0.862	999.47 ± 2.1	653.9
323.15 K, x1 = 1	994.82 ± 2.1	1198.7
328.15 K, x1 = 0.13	1047.12 ± 2.1	3.67
328.15 K, x1 = 0.253	1032.95 ± 2.1	10.12
328.15 K, x1 = 0.338	1025.06 ± 2.1	19.36
328.15 K, x1 = 0.439	1017.51 ± 2.1	41.01
328.15 K, x1 = 0.574	1009.43 ± 2.1	84.97
328.15 K, x1 = 0.75	1000.56 ± 2.1	197.17
328.15 K, x1 = 0.862	996.58 ± 2.1	466.77
328.15 K, x1 = 1	992 ± 2.1	828.3
333.15 K, x1 = 0.13	1042.98 ± 2.1	3.31
333.15 K, x1 = 0.253	1029.24 ± 2.1	8.78
333.15 K, x1 = 0.338	1021.55 ± 2.1	16.31
333.15 K, x1 = 0.439	1014.19 ± 2.1	33.28
333.15 K, x1 = 0.574	1006.28 ± 2.1	67.04
333.15 K, x1 = 0.75	997.59 ± 2.1	149.71
333.15 K, x1 = 0.862	993.72 ± 2.1	338.65
333.15 K, x1 = 1	989.17 ± 2.1	588.69
338.15 K, x1 = 0.13	1038.85 ± 2.1	3
338.15 K, x1 = 0.253	1025.55 ± 2.1	7.66
338.15 K, x1 = 0.338	1018.05 ± 2.1	13.91
338.15 K, x1 = 0.439	1010.88 ± 2.1	27.38
338.15 K, x1 = 0.574	1003.15 ± 2.1	53.77
338.15 K, x1 = 0.75	994.64 ± 2.1	115.48
338.15 K, x1 = 0.862	990.88 ± 2.1	250.15
338.15 K, x1 = 1	986.38 ± 2.1	426.28
343.15 K, x1 = 0.13	1034.72 ± 2.1	2.72
343.15 K, x1 = 0.253	1021.86 ± 2.1	6.75
343.15 K, x1 = 0.338	1014.56 ± 2.1	11.95
343.15 K, x1 = 0.439	1007.59 ± 2.1	22.97
343.15 K, x1 = 0.574	1000.03 ± 2.1	43.6
343.15 K, x1 = 0.75	991.75 ± 2.1	90.8
343.15 K, x1 = 0.862	988.04 ± 2.1	189.55
343.15 K, x1 = 1	983.63 ± 2.1	316.66
348.15 K, x1 = 0.13	1030.6 ± 2.1	2.5
348.15 K, x1 = 0.253	1018.18 ± 2.1	5.98
348.15 K, x1 = 0.338	1011.07 ± 2.1	10.37
348.15 K, x1 = 0.439	1004.31 ± 2	19.28
348.15 K, x1 = 0.574	996.93 ± 2	35.76
348.15 K, x1 = 0.75	988.9 ± 2.1	72.27
348.15 K, x1 = 0.862	985.2 ± 2.1	145.53
348.15 K, x1 = 1	980.88 ± 2.1	237.14
353.15 K, x1 = 0.13	1026.47 ± 2.1	2.29
353.15 K, x1 = 0.253	1014.51 ± 2.1	5.34
353.15 K, x1 = 0.338	1007.6 ± 2	9.06
353.15 K, x1 = 0.439	1001.04 ± 2	16.49
353.15 K, x1 = 0.574	993.83 ± 2	29.9
353.15 K, x1 = 0.75	985.96 ± 2.1	58.87
353.15 K, x1 = 0.862	982.37 ± 2.1	113.93
353.15 K, x1 = 1	978.13 ± 2.1	181.41
